These are literature values, as cited in patent US12691101B2, “Compound and method for preventing or treating of respiratory diseases comprising the same as an active ingredient” (YONSEI UNIVERSITY, UNIVERSITY - INDUSTRY FOUNDATION (UIF), priority 2019, dated 2026).

Each structure is given as a SMILES string.

For this data set, the system named is HBE cells. The settings on record: IL-13-treated HBE cells; cited from earlier work.

For `Cn1nc(COc2cccc(F)c2)c2c1CCN(C(=O)Nc1ccc(Cl)cc1)C2` [PDSinh-A01], the ASL depth result is “significantly increased”.
